According to ChEMBL document CHEMBL4184210, “Optimization of novel monobactams with activity against carbapenem-resistant Enterobacteriaceae - Identification of LYS228” (Bioorg Med Chem Lett, 2018):
Converted amounts (≈) assume the structure as drawn.

Tests used:
Escherichia coli [1] = assay: Antimicrobial activity against Escherichia coli expressing beta-lactamase KPC-2 by CLSI broth microdilution method; format: functional
Escherichia coli [2] = assay: Antimicrobial activity against Escherichia coli expressing beta-lactamase VEB-1 by CLSI broth microdilution method; format: functional
Escherichia coli [3] = assay: Antimicrobial activity against Escherichia coli expressing beta-lactamase NDM-1 by CLSI broth microdilution method; format: functional
Escherichia coli [4] = assay: Antimicrobial activity against Escherichia coli expressing beta-lactamase NDM-5 by CLSI broth microdilution method; format: functional
[5] = target: GABA A receptor alpha-2/beta-2/gamma-2 (Homo sapiens) (UniProt P47870+P18507+P47869); assay: Inhibition of recombinant human GABA A alpha2beta2gamma2 receptor expressed in CHO-K1 cells at 300 uM incubated at room temperature for 15 mins before the GABA addition fluorescence spectrometry; format: cell-based
Escherichia coli [6] = assay: microbe, parasite or virus in culture
Description: Antimicrobial activity against Escherichia coli expressing beta-lactamase CTXM-3 by CLSI broth microdilution method

Escherichia coli [7] = assay: microbe, parasite or virus in culture; remark: listed apart in the source
Description: Antimicrobial activity against Escherichia coli expressing beta-lactamase GES-1 by CLSI broth microdilution method

Escherichia coli [8] = assay: microbe, parasite or virus in culture; remark: listed apart in the source
Description: Antimicrobial activity against Escherichia coli expressing beta-lactamase IMI-1 by CLSI broth microdilution method

Escherichia coli [9] = assay: microbe, parasite or virus in culture; remark: listed apart in the source
Description: Antimicrobial activity against Escherichia coli expressing beta-lactamase KPC-3 by CLSI broth microdilution method

Escherichia coli [10] = assay: microbe, parasite or virus in culture; remark: listed apart in the source
Description: Antimicrobial activity against Escherichia coli expressing beta-lactamase KPC-4 by CLSI broth microdilution method

Escherichia coli [11] = assay: microbe, parasite or virus in culture; remark: listed apart in the source
Description: Antimicrobial activity against Escherichia coli expressing beta-lactamase KPC-8 by CLSI broth microdilution method

Escherichia coli [12] = assay: microbe, parasite or virus in culture; remark: listed apart in the source
Description: Antimicrobial activity against Escherichia coli expressing beta-lactamase NMC-A by CLSI broth microdilution method

Escherichia coli [13] = assay: microbe, parasite or virus in culture; remark: listed apart in the source
Description: Antimicrobial activity against Escherichia coli expressing beta-lactamase PER-1 by CLSI broth microdilution method

Escherichia coli [14] = assay: microbe, parasite or virus in culture; remark: listed apart in the source
Description: Antimicrobial activity against Escherichia coli expressing beta-lactamase PER-2 by CLSI broth microdilution method

Escherichia coli [15] = assay: microbe, parasite or virus in culture; remark: listed apart in the source
Description: Antimicrobial activity against Escherichia coli expressing beta-lactamase PER-4 by CLSI broth microdilution method

Escherichia coli [16] = assay: microbe, parasite or virus in culture; remark: listed apart in the source
Description: Antimicrobial activity against Escherichia coli expressing beta-lactamase SHV-12 by CLSI broth microdilution method

Escherichia coli [17] = assay: microbe, parasite or virus in culture; remark: listed apart in the source
Description: Antimicrobial activity against Escherichia coli expressing beta-lactamase VEB-4 by CLSI broth microdilution method

Escherichia coli [18] = assay: microbe, parasite or virus in culture; remark: listed apart in the source
Description: Antimicrobial activity against Escherichia coli expressing beta-lactamase VEB-7 by CLSI broth microdilution method

Escherichia coli [19] = assay: microbe, parasite or virus in culture; remark: listed apart in the source
Description: Antimicrobial activity against Escherichia coli expressing beta-lactamase TEM-10 by CLSI broth microdilution method

Escherichia coli [20] = assay: microbe, parasite or virus in culture; remark: listed apart in the source
Description: Antimicrobial activity against Escherichia coli expressing beta-lactamase TEM-16 by CLSI broth microdilution method

Escherichia coli [21] = assay: microbe, parasite or virus in culture; remark: listed apart in the source
Description: Antimicrobial activity against Escherichia coli expressing beta-lactamase TEM-24 by CLSI broth microdilution method

Escherichia coli [22] = assay: microbe, parasite or virus in culture; remark: listed apart in the source
Description: Antimicrobial activity against Escherichia coli expressing beta-lactamase TEM-121 by CLSI broth microdilution method

Escherichia coli [23] = assay: microbe, parasite or virus in culture; remark: listed apart in the source
Description: Antimicrobial activity against Escherichia coli expressing beta-lactamase GIM-1 by CLSI broth microdilution method

Escherichia coli [24] = assay: microbe, parasite or virus in culture; remark: listed apart in the source
Description: Antimicrobial activity against Escherichia coli expressing beta-lactamase IMP-1 by CLSI broth microdilution method

Escherichia coli [25] = assay: microbe, parasite or virus in culture; remark: listed apart in the source
Description: Antimicrobial activity against Escherichia coli expressing beta-lactamase SPM-1 by CLSI broth microdilution method

Escherichia coli [26] = assay: microbe, parasite or virus in culture; remark: listed apart in the source
Description: Antimicrobial activity against Escherichia coli expressing beta-lactamase VIM-1 by CLSI broth microdilution method

Escherichia coli [27] = assay: microbe, parasite or virus in culture; remark: listed apart in the source
Description: Antimicrobial activity against Escherichia coli expressing beta-lactamase AmpC by CLSI broth microdilution method

Escherichia coli [28] = assay: microbe, parasite or virus in culture; remark: listed apart in the source
Description: Antimicrobial activity against Escherichia coli expressing beta-lactamase CMY-2 by CLSI broth microdilution method

Escherichia coli [29] = assay: microbe, parasite or virus in culture; remark: listed apart in the source
Description: Antimicrobial activity against Escherichia coli expressing beta-lactamase MIR-1 by CLSI broth microdilution method

Escherichia coli [30] = assay: microbe, parasite or virus in culture; remark: listed apart in the source
Description: Antimicrobial activity against Escherichia coli expressing beta-lactamase P99 by CLSI broth microdilution method

Escherichia coli [31] = assay: microbe, parasite or virus in culture; remark: listed apart in the source
Description: Antimicrobial activity against Escherichia coli expressing beta-lactamase Oxa-10 by CLSI broth microdilution method

Escherichia coli [32] = assay: microbe, parasite or virus in culture; remark: listed apart in the source
Description: Antimicrobial activity against Escherichia coli expressing beta-lactamase Oxa-18 by CLSI broth microdilution method

Escherichia coli [33] = assay: microbe, parasite or virus in culture; remark: listed apart in the source
Description: Antimicrobial activity against Escherichia coli expressing beta-lactamase Oxa-23 by CLSI broth microdilution method

Escherichia coli [34] = assay: microbe, parasite or virus in culture; remark: listed apart in the source
Description: Antimicrobial activity against Escherichia coli expressing beta-lactamase Oxa-40 by CLSI broth microdilution method

Escherichia coli [35] = assay: microbe, parasite or virus in culture; remark: listed apart in the source
Description: Antimicrobial activity against Escherichia coli expressing beta-lactamase Oxa-48 by CLSI broth microdilution method

Escherichia coli [36] = assay: microbe, parasite or virus in culture; remark: listed apart in the source
Description: Antimicrobial activity against Escherichia coli expressing beta-lactamase Oxa-51 by CLSI broth microdilution method

Escherichia coli [37] = assay: microbe, parasite or virus in culture; remark: listed apart in the source
Description: Antimicrobial activity against Escherichia coli expressing beta-lactamase Oxa-146 by CLSI broth microdilution method

Escherichia coli [38] = assay: microbe, parasite or virus in culture; remark: listed apart in the source
Description: Antimicrobial activity against Escherichia coli expressing beta-lactamase Oxa-160 by CLSI broth microdilution method

Escherichia coli [39] = assay: microbe, parasite or virus in culture; remark: listed apart in the source
Description: Antimicrobial activity against Escherichia coli expressing beta-lactamase Oxa-181 by CLSI broth microdilution method

Escherichia coli [40] = assay: microbe, parasite or virus in culture; remark: listed apart in the source
Description: Antimicrobial activity against Escherichia coli expressing beta-lactamase Oxa-225 by CLSI broth microdilution method

Escherichia coli [41] = assay: Antimicrobial activity against Escherichia coli expressing beta-lactamase TEM-1 by CLSI broth microdilution method; format: functional
Pseudomonas aeruginosa [42] = assay: Antimicrobial activity against Pseudomonas aeruginosa ATCC 27853 by CLSI broth microdilution method; format: functional
Pseudomonas aeruginosa [43] = assay: Antimicrobial activity against Pseudomonas aeruginosa expressing delta-mexB/delta-mexXY/delta-mexCD and delta-ampC mutant by CLSI broth microdilution method; format: functional
Pseudomonas aeruginosa [44] = assay: Antimicrobial activity against Pseudomonas aeruginosa expressing nalB/delta-mexXY/delta-mexCDoprJ/delta-ampC by CLSI broth microdilution method; format: functional
Pseudomonas aeruginosa [45] = assay: Antimicrobial activity against Pseudomonas aeruginosa expressing delta-mexB/mexXY/delta-ampDh2/ delta-ampD by CLSI broth microdilution method; format: functional
Escherichia coli [46] = assay: microbe, parasite or virus in culture; remark: listed apart in the source
Description: Antimicrobial activity against wild type Escherichia coli by CLSI broth microdilution method

Escherichia coli [47] = assay: microbe, parasite or virus in culture; remark: listed apart in the source
Description: Antimicrobial activity against Escherichia coli expressing beta-lactamase CTXM-15 by CLSI broth microdilution method

Escherichia coli [48] = assay: microbe, parasite or virus in culture; remark: listed apart in the source
Description: Antimicrobial activity against Escherichia coli expressing beta-lactamase SME-1 by CLSI broth microdilution method

Escherichia coli [49] = assay: microbe, parasite or virus in culture; remark: listed apart in the source
Description: Antimicrobial activity against Escherichia coli expressing beta-lactamase TEM-47 by CLSI broth microdilution method

Escherichia coli [50] = assay: microbe, parasite or virus in culture; remark: listed apart in the source
Description: Antimicrobial activity against Escherichia coli expressing beta-lactamase DHA by CLSI broth microdilution method

[51] = Chemical stability in pH 7.4 potassium phosphate buffer assessed as half life for compound hydrolysis at 37 degC by UPLC and mass spectrometry; format: physicochemical

C[C@@H](O)[C@H]1C(=O)N2C(C(=O)O)=C(SCCNC=N)C[C@H]12 [IMIPENEM ANHYDROUS]
MIC (Escherichia coli [1]): 2 to 16 µg/mL (≈ 6.68 to 53.4 µM) | MIC (Escherichia coli [2]): 0.125 µg/mL (≈ 0.418 µM) | MIC (Escherichia coli [3]): 16 µg/mL (≈ 53.4 µM) | MIC (Escherichia coli [4]): 16 µg/mL (≈ 53.4 µM) | inhibition [5]: 15% | MIC (Escherichia coli [6]): 0.25 µg/mL (≈ 0.835 µM) | MIC (Escherichia coli [7]): 0.25 µg/mL (≈ 0.835 µM) | MIC (Escherichia coli [8]): 2 µg/mL (≈ 6.68 µM) | MIC (Escherichia coli [9]): 2 µg/mL (≈ 6.68 µM) | MIC (Escherichia coli [10]): 1 µg/mL (≈ 3.34 µM) | MIC (Escherichia coli [11]): 2 µg/mL (≈ 6.68 µM) | MIC (Escherichia coli [12]): 2 µg/mL (≈ 6.68 µM) | MIC (Escherichia coli [13]): 0.25 µg/mL (≈ 0.835 µM) | MIC (Escherichia coli [14]): 0.25 µg/mL (≈ 0.835 µM) | MIC (Escherichia coli [15]): 0.25 µg/mL (≈ 0.835 µM) | MIC (Escherichia coli [16]): 0.25 µg/mL (≈ 0.835 µM) | MIC (Escherichia coli [17]): 0.25 µg/mL (≈ 0.835 µM) | MIC (Escherichia coli [18]): 0.25 µg/mL (≈ 0.835 µM) | MIC (Escherichia coli [19]): 0.25 µg/mL (≈ 0.835 µM) | MIC (Escherichia coli [20]): 0.25 µg/mL (≈ 0.835 µM) | MIC (Escherichia coli [21]): 0.25 µg/mL (≈ 0.835 µM) | MIC (Escherichia coli [22]): 0.25 µg/mL (≈ 0.835 µM) | MIC (Escherichia coli [23]): 1 µg/mL (≈ 3.34 µM) | MIC (Escherichia coli [24]): 2 µg/mL (≈ 6.68 µM) | MIC (Escherichia coli [25]): 1 µg/mL (≈ 3.34 µM) | MIC (Escherichia coli [26]): 2 µg/mL (≈ 6.68 µM) | MIC (Escherichia coli [27]): 0.25 µg/mL (≈ 0.835 µM) | MIC (Escherichia coli [28]): 0.25 µg/mL (≈ 0.835 µM) | MIC (Escherichia coli [29]): 0.5 µg/mL (≈ 1.67 µM) | MIC (Escherichia coli [30]): 0.25 µg/mL (≈ 0.835 µM) | MIC (Escherichia coli [31]): 0.25 µg/mL (≈ 0.835 µM) | MIC (Escherichia coli [32]): 0.25 µg/mL (≈ 0.835 µM) | MIC (Escherichia coli [33]): 1 µg/mL (≈ 3.34 µM) | MIC (Escherichia coli [34]): 1 µg/mL (≈ 3.34 µM) | MIC (Escherichia coli [35]): 1 µg/mL (≈ 3.34 µM) | MIC (Escherichia coli [36]): 0.25 µg/mL (≈ 0.835 µM) | MIC (Escherichia coli [37]): 0.25 µg/mL (≈ 0.835 µM) | MIC (Escherichia coli [38]): 1 µg/mL (≈ 3.34 µM) | MIC (Escherichia coli [39]): 1 µg/mL (≈ 3.34 µM) | MIC (Escherichia coli [40]): 1 µg/mL (≈ 3.34 µM)

N=C(NC1CCNCC1)c1ccc(OC[C@H](O/N=C(\C(=O)N[C@@H]2C(=O)N(S(=O)(=O)O)[C@@H]2Cn2cncn2)c2csc(N)n2)C(=O)O)cc1 (stereo in doubt)
MIC (Escherichia coli [1]): 0.125 µg/mL (≈ 0.177 µM) | MIC (Escherichia coli [2]): 64 µg/mL (≈ 90.7 µM) | MIC (Escherichia coli [41]): 0.25 µg/mL (≈ 0.354 µM) | MIC (Escherichia coli [3]): 0.125 µg/mL (≈ 0.177 µM) | MIC (Escherichia coli [4]): 0.5 µg/mL (≈ 0.708 µM) | MIC (Pseudomonas aeruginosa [42]): 2 µg/mL (≈ 2.83 µM) | MIC (Pseudomonas aeruginosa [43]): 1 µg/mL (≈ 1.42 µM) | MIC (Pseudomonas aeruginosa [44]): 8 µg/mL (≈ 11.3 µM) | MIC (Pseudomonas aeruginosa [45]): 16 µg/mL (≈ 22.7 µM) | inhibition [5]: 35% | MIC (Escherichia coli [46]): 0.125 µg/mL (≈ 0.177 µM) | MIC (Escherichia coli [6]): 0.125 µg/mL (≈ 0.177 µM) | MIC (Escherichia coli [47]): 0.125 µg/mL (≈ 0.177 µM) | MIC (Escherichia coli [7]): 0.25 µg/mL (≈ 0.354 µM) | MIC (Escherichia coli [8]): 0.125 µg/mL (≈ 0.177 µM) | MIC (Escherichia coli [9]): 0.25 µg/mL (≈ 0.354 µM) | MIC (Escherichia coli [10]): 1 µg/mL (≈ 1.42 µM) | MIC (Escherichia coli [11]): 0.5 µg/mL (≈ 0.708 µM) | MIC (Escherichia coli [12]): 0.125 µg/mL (≈ 0.177 µM) | MIC (Escherichia coli [13]): > 64 µg/mL | MIC (Escherichia coli [14]): > 64 µg/mL | MIC (Escherichia coli [15]): > 64 µg/mL | MIC (Escherichia coli [16]): 0.5 µg/mL (≈ 0.708 µM) | MIC (Escherichia coli [48]): 0.125 µg/mL (≈ 0.177 µM) | MIC (Escherichia coli [17]): 64 µg/mL (≈ 90.7 µM) | MIC (Escherichia coli [18]): 64 µg/mL (≈ 90.7 µM) | MIC (Escherichia coli [19]): 1 µg/mL (≈ 1.42 µM) | MIC (Escherichia coli [20]): 0.25 µg/mL (≈ 0.354 µM) | MIC (Escherichia coli [21]): 0.5 µg/mL (≈ 0.708 µM) | MIC (Escherichia coli [49]): 0.125 µg/mL (≈ 0.177 µM) | MIC (Escherichia coli [22]): 1 µg/mL (≈ 1.42 µM) | MIC (Escherichia coli [23]): 0.125 µg/mL (≈ 0.177 µM) | MIC (Escherichia coli [24]): 0.125 µg/mL (≈ 0.177 µM) | MIC (Escherichia coli [25]): 0.125 µg/mL (≈ 0.177 µM) | MIC (Escherichia coli [26]): 0.125 µg/mL (≈ 0.177 µM) | MIC (Escherichia coli [27]): 0.25 µg/mL (≈ 0.354 µM) | MIC (Escherichia coli [50]): 1 µg/mL (≈ 1.42 µM) | MIC (Escherichia coli [28]): 0.5 µg/mL (≈ 0.708 µM) | MIC (Escherichia coli [29]): 0.25 µg/mL (≈ 0.354 µM) | MIC (Escherichia coli [30]): 0.5 µg/mL (≈ 0.708 µM) | MIC (Escherichia coli [31]): 0.125 µg/mL (≈ 0.177 µM) | MIC (Escherichia coli [32]): 32 µg/mL (≈ 45.3 µM) | MIC (Escherichia coli [33]): 0.125 µg/mL (≈ 0.177 µM) | MIC (Escherichia coli [34]): 0.25 µg/mL (≈ 0.354 µM) | MIC (Escherichia coli [35]): 0.125 µg/mL (≈ 0.177 µM) | MIC (Escherichia coli [36]): 0.125 µg/mL (≈ 0.177 µM) | MIC (Escherichia coli [37]): 1 µg/mL (≈ 1.42 µM) | MIC (Escherichia coli [38]): 0.25 µg/mL (≈ 0.354 µM) | MIC (Escherichia coli [39]): 0.25 µg/mL (≈ 0.354 µM) | MIC (Escherichia coli [40]): 0.25 µg/mL (≈ 0.354 µM)

CC(C)(O/N=C(\C(=O)N[C@@H]1C(=O)N(S(=O)(=O)O)[C@@H]1Cn1cncn1)c1csc(N)n1)C(=O)O (stereo in doubt)
MIC (Escherichia coli [1]): 1 µg/mL (≈ 1.99 µM) | MIC (Escherichia coli [3]): 0.5 µg/mL (≈ 0.995 µM) | half-life [51]: 233 h | MIC (Pseudomonas aeruginosa [42]): 32 µg/mL (≈ 63.7 µM) | MIC (Pseudomonas aeruginosa [43]): 1 µg/mL (≈ 1.99 µM) | MIC (Pseudomonas aeruginosa [44]): > 64 µg/mL | MIC (Pseudomonas aeruginosa [45]): > 64 µg/mL | MIC (Escherichia coli [46]): 0.5 µg/mL (≈ 0.995 µM) | MIC (Escherichia coli [47]): 0.5 µg/mL (≈ 0.995 µM) | MIC (Escherichia coli [16]): 1 µg/mL (≈ 1.99 µM) | MIC (Escherichia coli [19]): 1 µg/mL (≈ 1.99 µM) | MIC (Escherichia coli [27]): 16 µg/mL (≈ 31.8 µM) | MIC (Escherichia coli [28]): 8 µg/mL (≈ 15.9 µM)
